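Following 48 hours of exposure in 96-well plates, responses at five concentrations were used to interpolate endpoints linearly. The concentration for 50% growth inhibition is given as GI50. The concentration for full growth arrest is given as TGI.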
Columns and labels:
Experiment in all cases: NCI tumour cell line growth inhibition, 48 h
[1] = tested on: 786-0 renal
[2] = tested on: CAKI-1 renal
[3] = tested on: CCRF-CEM leukemia
[4] = tested on: EKVX NSCLC
[5] = tested on: HCC-2998 colon
[6] = tested on: HCT-116 colon
[7] = tested on: HOP-62 NSCLC
[8] = tested on: IGROV1 ovarian
[9] = tested on: KM12 colon
[10] = tested on: MALME-3M melanoma
[11] = tested on: MDA-N
[12] = tested on: OVCAR-3 ovarian
[13] = tested on: RPMI-8226 leukemia
[14] = tested on: SK-MEL-28 melanoma
[15] = tested on: SK-MEL-5 melanoma
[16] = tested on: SK-OV-3 ovarian
[17] = tested on: SN12C renal
[18] = tested on: UACC-257 melanoma
[19] = tested on: UO-31 renal

SMILES: COc1ccc(/C=N/N=C(\N)NO)c(O)c1
- TGI [1]: > 10 µM
- TGI [2]: 9.58 µM
- TGI [3]: > 10 µM
- TGI [4]: > 10 µM
- TGI [5]: > 10 µM
- TGI [6]: > 10 µM
- TGI [7]: > 10 µM
- TGI [8]: > 10 µM
- TGI [9]: > 10 µM
- TGI [10]: > 10 µM
- TGI [11]: > 10 µM
- TGI [12]: > 10 µM
- TGI [13]: > 10 µM
- TGI [14]: > 10 µM
- TGI [15]: > 10 µM
- TGI [16]: > 10 µM
- TGI [17]: > 10 µM
- TGI [18]: > 10 µM
- TGI [19]: > 10 µM

SMILES: Cc1ccc(-c2cc(N)n(-c3nc4c(c(=O)n(C)c(=O)n4C)n3C)n2)cc1
- TGI [1]: > 100 µM
- TGI [2]: > 100 µM
- TGI [3]: > 100 µM
- TGI [4]: > 100 µM
- TGI [5]: > 100 µM
- TGI [6]: > 100 µM
- TGI [7]: 63.9 µM
- TGI [8]: > 100 µM
- TGI [9]: > 100 µM
- TGI [10]: > 100 µM
- TGI [11]: > 100 µM
- TGI [12]: > 100 µM
- TGI [13]: > 100 µM
- TGI [14]: > 100 µM
- TGI [15]: > 100 µM
- TGI [16]: > 100 µM
- TGI [17]: > 100 µM
- TGI [18]: > 100 µM
- TGI [19]: > 100 µM

SMILES: NP(=O)(OCC1=CC(=O)c2ccccc2C1=O)N(CCBr)CCBr (configuration not stated)
- TGI [1]: 28.6 µM
- TGI [2]: 8.1 µM
- TGI [3]: > 100 µM
- TGI [4]: 34.6 µM
- TGI [5]: 34.3 µM
- TGI [6]: > 45.1 µM
- TGI [8]: 38.3 µM
- TGI [9]: 25 µM
- TGI [10]: 4.6 µM
- TGI [11]: 3.66 µM
- TGI [12]: > 25.6 µM
- TGI [13]: > 67.3 µM
- TGI [14]: 11.7 µM
- TGI [15]: 3.21 µM
- TGI [16]: 30.9 µM
- TGI [17]: 33.9 µM
- TGI [18]: 4.21 µM
- TGI [19]: 24.1 µM

SMILES: N#Cc1c(-c2ccccc2)nc(-c2ccccc2)sc1=S
- TGI [1]: > 100 µM
- TGI [2]: > 100 µM
- TGI [3]: > 100 µM
- TGI [4]: > 100 µM
- TGI [5]: > 100 µM
- TGI [6]: > 100 µM
- TGI [7]: > 100 µM
- TGI [8]: > 100 µM
- TGI [9]: > 100 µM
- TGI [10]: > 100 µM
- TGI [11]: > 100 µM
- TGI [12]: > 100 µM
- TGI [13]: > 100 µM
- TGI [14]: > 100 µM
- TGI [15]: > 100 µM
- TGI [16]: > 100 µM
- TGI [17]: > 100 µM
- TGI [18]: > 100 µM
- TGI [19]: > 100 µM

SMILES: Nc1cccc(Nc2nc3ccccc3nc2NS(=O)(=O)c2ccccc2)c1
- TGI [1]: > 100 µM
- TGI [2]: 80.3 µM
- TGI [3]: 46.7 µM
- TGI [4]: > 100 µM
- TGI [5]: 33.9 µM
- TGI [6]: 32.9 µM
- TGI [7]: 96.2 µM
- TGI [8]: 86.9 µM
- TGI [9]: 41.7 µM
- TGI [10]: 72.7 µM
- TGI [11]: > 100 µM
- TGI [12]: 47.3 µM
- TGI [13]: 52.5 µM
- TGI [14]: 49.3 µM
- TGI [15]: 29.8 µM
- TGI [16]: > 100 µM
- TGI [17]: > 100 µM
- TGI [18]: > 100 µM
- TGI [19]: 50.4 µM

SMILES: CN(C)c1ccc(C2SCC(=O)N2NS(=O)(=O)c2cccc(C(=O)O)c2)cc1 (configuration not stated)
- TGI [1]: 31 µM
- TGI [2]: > 100 µM
- TGI [3]: > 100 µM
- TGI [4]: > 100 µM
- TGI [5]: > 100 µM
- TGI [6]: > 100 µM
- TGI [7]: > 100 µM
- TGI [8]: > 100 µM
- TGI [9]: > 100 µM
- TGI [10]: > 100 µM
- TGI [11]: > 100 µM
- TGI [12]: > 100 µM
- TGI [13]: > 100 µM
- TGI [14]: > 100 µM
- TGI [15]: > 100 µM
- TGI [16]: > 100 µM
- TGI [17]: > 100 µM
- TGI [18]: > 100 µM
- TGI [19]: > 100 µM

SMILES: N#C/C(=C\n1ccc(=O)[nH]c1=S)C(N)=O
- TGI [1]: > 100 µM
- TGI [2]: > 100 µM
- TGI [3]: > 100 µM
- TGI [4]: > 100 µM
- TGI [5]: > 100 µM
- TGI [6]: > 100 µM
- TGI [7]: > 100 µM
- TGI [8]: > 100 µM
- TGI [9]: > 100 µM
- TGI [10]: > 100 µM
- TGI [11]: > 100 µM
- TGI [12]: 0.673 µM
- TGI [13]: > 100 µM
- TGI [14]: > 100 µM
- TGI [15]: > 100 µM
- TGI [16]: > 100 µM
- TGI [17]: > 100 µM
- TGI [18]: > 100 µM
- TGI [19]: > 100 µM

SMILES: O=C1NC(N/N=C/C(O)C(O)C(O)CO)=N/C1=C\c1ccco1 (configuration not stated)
- TGI [1]: > 100 µM
- TGI [2]: > 100 µM
- TGI [3]: > 100 µM
- TGI [4]: > 100 µM
- TGI [5]: > 100 µM
- TGI [6]: > 100 µM
- TGI [7]: > 100 µM
- TGI [8]: > 100 µM
- TGI [9]: > 100 µM
- TGI [10]: > 100 µM
- TGI [11]: > 100 µM
- TGI [12]: > 100 µM
- TGI [13]: > 100 µM
- TGI [14]: > 100 µM
- TGI [15]: > 100 µM
- TGI [16]: > 100 µM
- TGI [17]: > 100 µM
- TGI [18]: > 100 µM

SMILES: CC(=O)O[C@H]1C#C/C=C\C#CC[C@@H]2C(=O)N[C@@H]12
- TGI [1]: > 88.3 µM
- TGI [2]: > 40.1 µM
- TGI [3]: > 100 µM
- TGI [4]: > 100 µM
- TGI [5]: > 100 µM
- TGI [6]: > 100 µM
- TGI [7]: > 72.6 µM
- TGI [8]: > 100 µM
- TGI [9]: > 100 µM
- TGI [10]: > 100 µM
- TGI [11]: > 100 µM
- TGI [12]: > 100 µM
- TGI [13]: > 78.1 µM
- TGI [14]: > 100 µM
- TGI [15]: > 100 µM
- TGI [16]: > 100 µM
- TGI [17]: > 80.4 µM
- TGI [18]: > 100 µM
- TGI [19]: > 62.8 µM

SMILES: CCCCCC(=O)NC(=S)Nc1nn[nH]n1
- TGI [1]: > 100 µM
- TGI [2]: > 100 µM
- TGI [3]: > 100 µM
- TGI [4]: > 100 µM
- TGI [5]: > 100 µM
- TGI [6]: > 100 µM
- TGI [7]: > 100 µM
- TGI [8]: > 100 µM
- TGI [9]: > 100 µM
- TGI [10]: > 100 µM
- TGI [11]: > 100 µM
- TGI [12]: > 100 µM
- TGI [13]: > 100 µM
- TGI [14]: > 100 µM
- TGI [15]: > 100 µM
- TGI [16]: > 100 µM
- TGI [17]: > 100 µM
- TGI [18]: > 100 µM
- TGI [19]: > 100 µM

SMILES: CCOC(=O)/C=C(\C(=O)OCC)n1cc(C)c(=O)n(Cc2cnnn2CCCCOC(C)=O)c1=O
- TGI [1]: 28 µM
- TGI [2]: 8.73 µM
- GI50 [3]: 1.32 µM
- TGI [3]: 4.71 µM
- TGI [4]: 25.2 µM
- TGI [5]: 43.9 µM
- TGI [6]: 22.7 µM
- TGI [7]: > 68.1 µM
- TGI [8]: 28.1 µM
- TGI [9]: 34.4 µM
- TGI [10]: 3.79 µM
- TGI [11]: 55.8 µM
- TGI [12]: 39.1 µM
- TGI [13]: > 26.7 µM
- TGI [14]: 25.1 µM
- TGI [15]: > 52.2 µM
- TGI [16]: > 92.4 µM
- TGI [17]: 39.3 µM
- TGI [18]: 31.7 µM
- TGI [19]: 30 µM

SMILES: O=c1c2ncn(COCCCl)c2n(-c2ccccc2)c(=S)n1-c1ccccc1
- TGI [1]: > 100 µM
- TGI [2]: > 100 µM
- TGI [3]: > 100 µM
- TGI [4]: > 100 µM
- TGI [5]: > 100 µM
- TGI [6]: > 100 µM
- TGI [7]: > 100 µM
- TGI [8]: > 100 µM
- TGI [9]: > 100 µM
- TGI [10]: > 100 µM
- TGI [11]: > 100 µM
- TGI [12]: > 100 µM
- TGI [13]: > 100 µM
- TGI [14]: > 100 µM
- TGI [15]: > 100 µM
- TGI [16]: > 100 µM
- TGI [17]: > 100 µM
- TGI [18]: > 100 µM
- TGI [19]: > 100 µM
